# Source: patent US10494341B2, “Compound containing indoleacetic acid core structure and use thereof” (Beijing An Jian Xi Bio-Medical Technology Co., Ltd., priority 2015, dated 2019)
# How the values were obtained:
# Assay type in all cases: in vivo
# gastric mucosa = test: Ulcer induction in rats after gavage (lesions of the gastric mucosa); details: for prevalence of ulcer / Ulcer index: gavage three times; for Ulcer index: Dose 90 μM/kg, 12 hours after last gavage; for ulcer at high concentration: gavage, high concentration (90 μM)
# mice (C57BL/6J) = test: Survival rate of mice irradiated by γ-rays; details: 30th day after 8.75 Gy γ-rays, 16 mice per group; for number of survived mice: intermediates each 3 mg/kg/day gavage; for survival rate: compounds 6 mg/kg/day gavage, amifostine 400 mg/kg/day i.p.
# Description: In this experiment, 10-week-old male mice (C57BL/6J) weighing about 20 g were used as subjects, and 16 mice were taken as a group. The mice were divided into the following groups: 1. no γ-ray+no drug; 2. γ-ray+no drug; 3. γ-ray+amifostine; 4. γ-ray+intermediate I+intermediate II; 5. γ-ray+compound a; 6. γ-ray+compound b; and 7. γ-ray+compound d. Firstly, each group of mice was administered with a protective agent, and the specific amounts were as follows: compound a, b and d: 6 mg/kg/day (8.1 μM), amifostine: 400 mg/kg/day (1.5 mM), intermediate I+Intermediate II: each 3 mg/kg/day (8.1 μM). Except that amifostine was intraperitoneally injected (30 minutes before irradiation, amifostine was administered), the other protective agents were administered by gavage. 12 hours after administration, systemic irradiation was performed using cobalt 60γ-rays at a dose of 8.75Gy and a dose rate of 0.35 Gy/min for 25 minutes, with the radiation source 80 cm away from the mice. The mice were irradiated once, and continuously administered with drugs once daily for 10 days after irradiation. The number of survival mice was recorded. The percentage obtained by dividing the number of survival mice by the total number of mice in the experimental group (16 mice) is survival rate of mice, and the results are summarized in FIG. 7. […] It is noteworthy that in the experimental group using intermediate I+intermediate II, only one mouse is survived.
# COX-1 in gastric mucosa = molecular target: T1, COX-1 in gastric mucosa (Rattus norvegicus, UniProt Q63921); test: COX-1 activity assay, gastric mucosa (thromboxane B2 EIA) after oral dosing of A23187-treated rats; details: for reduction of inhibition against COX-1 in gastric mucosal tissue compared with intermediate I: gavage 1, 3, 9 mg/kg/day, intermediate I 0.5 mg/kg, 6 h after dosing; for effect of inhibiting COX-1 in gastric mucosa: gavage, A23187-activated
# T1 construct: from tissue; host or cells: rat gastric mucosa (in vivo dosing, tissue homogenate supernatant)
# T1 sequence (Q63921 27-602): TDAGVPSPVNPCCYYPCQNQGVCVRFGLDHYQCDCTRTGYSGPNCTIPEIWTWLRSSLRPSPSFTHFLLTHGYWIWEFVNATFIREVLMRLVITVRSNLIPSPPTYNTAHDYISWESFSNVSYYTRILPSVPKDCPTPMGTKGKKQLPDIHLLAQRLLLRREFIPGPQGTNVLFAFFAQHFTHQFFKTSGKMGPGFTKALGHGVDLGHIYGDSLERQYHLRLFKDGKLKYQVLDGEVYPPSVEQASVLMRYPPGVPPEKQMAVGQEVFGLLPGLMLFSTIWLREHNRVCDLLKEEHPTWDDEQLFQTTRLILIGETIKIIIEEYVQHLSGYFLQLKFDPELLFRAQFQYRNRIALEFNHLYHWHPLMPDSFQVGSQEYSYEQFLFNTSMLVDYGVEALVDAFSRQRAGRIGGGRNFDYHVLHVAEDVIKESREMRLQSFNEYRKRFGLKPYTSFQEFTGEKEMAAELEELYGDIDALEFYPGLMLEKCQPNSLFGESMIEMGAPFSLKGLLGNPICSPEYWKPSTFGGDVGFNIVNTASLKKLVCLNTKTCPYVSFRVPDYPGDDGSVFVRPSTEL
# Description: (1) COX-1 activity assay: 2 hours after intraperitoneal injection of calcium ionophore A23187 (50 mg/kg) to rats, each of the compounds a, b, c, d, e and f was orally administered (gavage) to three rats at a dose of 1, 3 and 9 mg/kg/day, respectively; the intermediate I was orally administered as a control drug to three rats at a dose of 0.5 mg/kg; and additional three rats were only administered with COX-1 activator, the calcium ionophore A23187, and were not administered with the compounds of the present invention. 6 hours after the compound of the present invention was administered, the animals were sacrificed, gastric mucosal tissue and myocardial tissue were collected, homogenized, and subjected to high-speed centrifugation (12,000 rpm), and the supernatant was collected for use. The amount of thromboxane B2 was measured using an enzyme-linked immunosorbent assay (EIA) kit (operated in accordance with the instructions provided by the manufacturer) and converted to COX1 activity.
# The percentage inhibition rate against COX-1 (FIG. 1a—gastric mucosa, FIG. 1b—myocardium) and COX-2 (FIG. 1c) and the IC50 values (Table 1a—gastric mucosa; Table 1b—myocardium) of each tested pharmaceutical compound were calculated from the above data.
# peripheral leukocytes = test: Protection against blood cell (leukocyte) damage induced by paclitaxel; details: mice, compounds 6 mg/kg/day gavage; for protective effect on peripheral leukocytes (words): paclitaxel 10 mg/kg/day i.p.; for protective effect on leukocytes at the late stage of chemotherapy: paclitaxel
# Description: In this experiment, 10-week-old male mice (C57BL/6J) weighing about 20 grams were used as subjects, and 6 mice were taken as a group. The mice were divided into 5 groups: 1. Paclitaxel; 2. Paclitaxel+amifostine; 3. Paclitaxel+intermediate I+intermediate II; 4. paclitaxel+compound a; and 5. paclitaxel+compound b. Firstly, each group of mice was administered with a protective agent, and the specific amounts were as follows: compounds a and b: each 6 mg/kg/day (8.1 μM), amifostine: 400 mg/kg/day (1.5 mM), intermediate I+Intermediate II: each 3 mg/kg/day (8.1 μM). Except that amifostine was intraperitoneally injected (30 minutes before administering Paclitaxel, amifostine was administered), the other protective agents were administered by gavage (once a day, 25 times continuously). 12 hours after the compound a and the corresponding protective agents were administered, Paclitaxel was intraperitoneally injected (10 mg/kg/day, once every 3 days, 9 times continuously), and 7, 14, 21, 28 days later, blood of mice was drawn respectively. The number of leukocytes was analyzed.
SMILES,prevalence of ulcer (gastric mucosa; 10 μM),prevalence of ulcer (gastric mucosa; 30 μM),prevalence of ulcer (gastric mucosa; 90 μM),Ulcer index (gastric mucosa),ulcer at high concentration (gastric mucosa),number of survived mice (mice (C57BL/6J)) [mice],survival rate (mice (C57BL/6J)) [%],reduction of inhibition against COX-1 in gastric mucosal tissue compared with intermediate I (COX-1 in gastric mucosa) [fold],effect of inhibiting COX-1 in gastric mucosa (COX-1 in gastric mucosa),protective effect on peripheral leukocytes (words) (peripheral leukocytes),protective effect on leukocytes at the late stage of chemotherapy (peripheral leukocytes),protective effect on peripheral leukocytes (words) (peripheral leukocytes; listed as Compound b)
COC1=C(OC)C(=O)C(CCCCCCCCCCOC(=O)Cc2c(C)n(C(=O)c3ccc(Cl)cc3)c3cc(OC)ccc23)=C(C)C1=O [compound a],0/6,0/6,1/6,3.3 ± 0.12,only one rat has light ulcer,10,62.5,~700,almost lose the effect of inhibiting COX-1 in gastric mucosa,apparently reduce radiation-induced peripheral leukocyte damage,significantly better than that of amifostine,–
COc1ccc2c(CC(=O)OCCCCCCCCCCc3c(C)c(O)c(OC)c(OC)c3O)c(C)n(C(=O)c3ccc(Cl)cc3)c2c1 [compound b],0/6,0/6,0/6,0,does not result in ulcer,12,75,~700,almost lose the effect of inhibiting COX-1 in gastric mucosa,apparently reduce radiation-induced peripheral leukocyte damage,significantly better than that of amifostine,strongest protective effect
